Source: PubChem BioAssay (NCI)
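Compound exposure: 48 hours, 5 concentrations, 96-well plates. GI50: concentration for 50% inhibition of growth. TGI denotes the concentration required for complete inhibition of growth.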

What was measured:
Test in all cases: inhibition of tumour cell growth, NCI panel, 48 h
SF-268 CNS = tested on: SF-268 CNS
SW-620 colon = tested on: SW-620 colon
UO-31 renal = tested on: UO-31 renal
TK-10 renal = tested on: TK-10 renal
EKVX NSCLC = tested on: EKVX NSCLC
OVCAR-3 ovarian = tested on: OVCAR-3 ovarian
CCRF-CEM leukemia = tested on: CCRF-CEM leukemia
SN12C renal = tested on: SN12C renal
SR leukemia = tested on: SR leukemia

Compound	TGI (SF-268 CNS) [µM]	TGI (SW-620 colon) [µM]	TGI (UO-31 renal) [µM]	TGI (TK-10 renal) [µM]	TGI (EKVX NSCLC) [µM]	TGI (OVCAR-3 ovarian) [µM]	TGI (CCRF-CEM leukemia) [µM]	TGI (SN12C renal) [µM]	GI50 (SF-268 CNS) [µM]	GI50 (SW-620 colon) [µM]	GI50 (UO-31 renal) [µM]	GI50 (TK-10 renal) [µM]	GI50 (EKVX NSCLC) [µM]	GI50 (OVCAR-3 ovarian) [µM]	GI50 (CCRF-CEM leukemia) [µM]	GI50 (SN12C renal) [µM]	GI50 (SR leukemia) [µM]	TGI (SR leukemia) [µM]
CC[O+]=c1cccc2ssnc1-2	> 100	> 100	> 100	> 100	> 100	99.8	> 100	> 100										
CCC(=O)[O-].CCC(=O)[O-].N.N.N.N.[Co+3].[O-][Cl+3]([O-])([O-])[O-]	> 100	> 100	> 100	> 100	> 100	> 100	> 100	> 100	> 100	> 100	> 100	> 100	> 100	> 100	> 100	> 100		
COc1ncnc2c1ncn2C/C(Br)=C(\Br)CCl	5.59		10.6	7.64	29.9	3.22	13.5	9.52	1.96		2.41	2.54	16.3	1.77	2.73	2.44	2.73	12.2
CN1CCN(c2ccc(NC3=C(Cl)C(=O)c4ncccc4C3=O)cc2C(F)(F)F)CC1	14	3.37	2.82	3.45	8.44	1.11		3.31	3.3	1.35	1.5	1.92	2.66	0.297		1.79	0.355	3.66
CCN(CCc1ccc(F)cc1)c1ccc(CO)c(Cl)c1	28.6	24.2	23.8	1.7		15.4	47.3	23	14.3	8.84	11.1	0.366		4.27	15.6	9.27	13.1	42.5
Cc1occc1C(=S)Nc1ccc(Cl)c(C(=O)OCC2CC2)c1	> 100	> 100	> 100	> 100	> 100	> 100	91.5	> 100										
O=C(/C=C/c1ccccc1)c1ccc(O)c(CN2CCN(c3cc4c(cc3F)c(=O)c(C(=O)O)cn4C3CC3)CC2)c1	> 100	> 100		> 100	> 100	> 100	> 100		2.53	2.28		6.37	3.66	1.91	0.598		0.807	> 100
CC(=O)[CH-]C(=O)c1ccccc1.CC(=O)[CH-]C(=O)c1ccccc1.[O-]c1ccc(O)cc1.[O-]c1ccc(O)cc1.[Ti+4]	33.9	31.6	49.5	59.2		27.2	7.49	36.4	14	17	23.7	27.7		13.9	1.91	14.3		
